Results on one compound are retold here after US20140322296A1, “PIPERAQUINE MICROCAPSULES AND COMPOSITIONS CONTAINING THEM” (Aptalis Pharma S.r.l., priority 2013, published 2014).

This data set in a line: Compatibility of piperaquine with the coacervation process (heating/cooling thermal cycles). Type of data set: physicochemical. The protocol: 1. Methods for Characterization • Particle size distribution (PSD): an amount of microcapsules in the range of 25-50 g of microcapsules is poured into a 100 mL HDPE bottle, 0.2% (w/w) of Syloid 244 (colloidal silicon dioxide, WR Grace, Columbia, Md.) and manually blended for 2 minutes; the mixture of microcapsules and Syloid 244 is sieved then with a digital Octagon apparatus for 10 minutes at amplitude 7. • Bulk density and tapped density of powders is measured according to Method USP 34 <616>. • Dissolution profile: Ph Eur [2.9.3]; apparatus n^o 2; dissolution medium: gastric simulated fluid pH 1.2 0.5% of Tween 80 without pepsin; dissolution medium volume: 900 mL; • dissolution medium temperature: 37±0.5° C.; withdrawal at: 5, 15, 30, 60 and 120 min. • Water content: Karl Fischer titration: Ph. Eur. 2.5.12 Method; following sample titration conditions are applied: sample solvent: methanol:formamide 1:1; sample weight: 50 mg; the value of water content in a sample is expressed as % w/w. • Residual cyclohexane: gas-chromatography (head space analysis). • Photostability Testing: ICH conditions “Q1B: Photostability (Option 1)”. • X-Ray Powder Diffraction (XRPD) measurements are performed on a Philips X'Pert PRO diffractometer (Bragg-Brentano geometry). • IR identity. A compatibility study is carried out on piperaquine to assess the compatibility of the drug with the coacervation process. In particular, piperaquine undergoes heating/cooling cycles mimicking thermal excursions of the process. Then, the following tests are performed both before and after thermal cycles to ascertain the stability of piperaquine: water content analysis (Karl Fisher test); effect of mechanical stress; crystalline structure by XRPD.

As for `Clc1ccc2c(N3CCN(CCCN4CCN(c5ccnc6cc(Cl)ccc56)CC4)CC3)ccnc2c1` [PQP•4H2O, 4,4′-(1,3-propanediyldi-4,1-piperazinediyl)bis(7-chloroquinoline)phosphate hydrate (1:4:4)], where the note is “after thermal cycle”, the “Assay (%) (PQP•4H2O)” value is given as 99.9% and the “Water content (%)” value stood at 8.5%. Also, for the setting “before thermal cycle”, the “Assay (%) (PQP•4H2O)” value turned out to be 99.9% and the “Water content (%)” value is recorded as 8.9%. In addition, where the note is “thermal excursions mimicking the coacervation process”, the “Effect of heating/cooling cycle on the drug” value was “not affected by heating/cooling cycle”.
